Some test systems named below: M19-MEL; SNB-78; NCI/ADR-RES; SK-MEL-2; UACC-257; RPMI-8226; HT-29; SNB-75; SK-MEL-5; HCT-15; SF-268; NCI-H23; OVCAR-3; DMS-114; OVCAR-5; NCI-H460; SF-539; RXF 393; CAKI-1.
Holding throughout (experiment): NCI anticancer screen, dose series, 48 h

The structures appear in SMILES notation.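 Where inhibition never reached the appropriate level, the endpoint shown equals the highest concentration tested. Otherwise, values were interpolated linearly from a five-concentration, 48-hour dose response in 96-well plates. Here, GI50 denotes the concentration required for 50% inhibition of growth.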 Activity calls are given as the source filed them. Cut-off read from the data, not from the text of the source: active = GI50 up to about 1.1 µM and inactive = higher. Bounds are passed on as bounds.

For `CC(=O)NC1=C[C@@H]([C@H]2COC(C)(C)O2)OC1=O`, the GI50 with M19-MEL, with SNB-78, in the test on NCI/ADR-RES, with SK-MEL-2, in the test on UACC-257 and in the test with RPMI-8226 was > 100 µM (inactive) throughout. The GI50 is > 100 µM (inactive) in the test on HT-29; > 100 µM (inactive) with SNB-75; > 100 µM (inactive) with SK-MEL-5; greater than 100 µM with HCT-15; > 100 µM (inactive) in the test on SF-268; > 100 µM (inactive) in the test on NCI-H23. In addition, the GI50 with OVCAR-3, in the test on DMS-114, in the test with OVCAR-5, in the test with NCI-H460, in the test on SF-539 and with RXF 393 was > 100 µM (inactive) each time. For the same molecule, the GI50 with CAKI-1 is > 100 µM (inactive).

The record behind these values is ChEMBL document CHEMBL1201862, “PubChem BioAssay data set” (2004).
